The supplement of paper PMC10307832

Experiments:
Test in all cases: relative viability (nuclei count vs DMSO), 5 days (fraction); higher = more cells survive
Midostaurin + Alpelisib = compound: CO[C@@H]1[C@H](N(C)C(=O)c2ccccc2)C[C@H]2O[C@]1(C)n1c3ccccc3c3c4c(c5c6ccccc6n2c5c31)C(=O)NC4 [Midostaurin] + Cc1nc(NC(=O)N2CCC[C@H]2C(N)=O)sc1-c1ccnc(C(C)(C)C(F)(F)F)c1 [Alpelisib] (partner 2 µM)
Outline: (§1)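 Values are medians from duplicate plates. Each reflects relative viability, defined as the nuclei count of treated wells over that of vehicle wells. Lung cancer cell lines in 1536-well plates were pin-tool dosed one day after seeding with one drug alone or with a fixed anchor-drug dose plus five library-drug doses (not always all listed) in √10 steps, then fixed, stained and imaged at 4× after 5 days.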

Midostaurin + Phenformin = compound: CO[C@@H]1[C@H](N(C)C(=O)c2ccccc2)C[C@H]2O[C@]1(C)n1c3ccccc3c3c4c(c5c6ccccc6n2c5c31)C(=O)NC4 [Midostaurin] + N=C(N)NC(=N)NCCc1ccccc1 [Phenformin] (partner 250 µM)
Outline: as §1

Midostaurin + Decitabine = compound: CO[C@@H]1[C@H](N(C)C(=O)c2ccccc2)C[C@H]2O[C@]1(C)n1c3ccccc3c3c4c(c5c6ccccc6n2c5c31)C(=O)NC4 [Midostaurin] + Nc1ncn([C@H]2C[C@H](O)[C@@H](CO)O2)c(=O)n1 [Decitabine] (partner 2 µM)
Outline: as §1

[1] = compound: COc1cc(-c2nn([C@H]3CC[C@H](N4CCN(C(C)=O)CC4)CC3)c3ncnc(N)c23)ccc1NC(=O)c1cc2ccccc2n1C + CS(=O)(=O)CCNCc1ccc(-c2ccc3ncnc(Nc4ccc(OCc5cccc(F)c5)c(Cl)c4)c3c2)o1 [Lapatinib] (partner 2 µM)
Outline: as §1

[2] = compound: COc1cc(-c2nn([C@H]3CC[C@H](N4CCN(C(C)=O)CC4)CC3)c3ncnc(N)c23)ccc1NC(=O)c1cc2ccccc2n1C + Cc1nc(NC(=O)N2CCC[C@H]2C(N)=O)sc1-c1ccnc(C(C)(C)C(F)(F)F)c1 [Alpelisib] (partner 2 µM)
Outline: as §1

| Cell Line | relative viability (Midostaurin + Alpelisib; first compound 0.01 µM) | relative viability (Midostaurin + Alpelisib; first compound 0.03162 µM) | relative viability (Midostaurin + Alpelisib; first compound 0.1 µM) | relative viability (Midostaurin + Alpelisib; first compound 0.3162 µM) | relative viability (Midostaurin + Phenformin; first compound 0.01 µM) | relative viability (Midostaurin + Phenformin; first compound 0.03162 µM) | relative viability (Midostaurin + Phenformin; first compound 0.1 µM) | relative viability (Midostaurin + Phenformin; first compound 0.3162 µM) | relative viability (Midostaurin + Decitabine; first compound 0.01 µM) | relative viability (Midostaurin + Decitabine; first compound 0.03162 µM) | relative viability (Midostaurin + Decitabine; first compound 0.1 µM) | relative viability (Midostaurin + Decitabine; first compound 0.3162 µM) | relative viability ([1]; first compound 0.0128 µM) | relative viability ([1]; first compound 0.04048 µM) | relative viability ([1]; first compound 0.128 µM) | relative viability ([1]; first compound 1.28 µM) | relative viability ([2]; first compound 0.0128 µM) | relative viability ([2]; first compound 0.04048 µM) | relative viability ([2]; first compound 0.128 µM) | relative viability ([2]; first compound 1.28 µM) |
| --- | --- | --- | --- | --- | --- | --- | --- | --- | --- | --- | --- | --- | --- | --- | --- | --- | --- | --- | --- | --- |
| 201T | 1.04 | 1.01 | 1.02 | 1.08 | 0.447 | 0.423 | 0.468 | 0.47 | 0.878 | 0.91 | 0.83 | 0.867 | 1.11 | 1.04 | 1 | 0.915 | 0.996 | 1.09 | 0.908 | 0.591 |
| A549 | 0.742 | 0.705 | 0.679 | 0.265 | 0.139 | 0.126 | 0.166 | 0.209 | 0.255 | 0.221 | 0.216 | 0.222 | 0.961 | 1.02 | 0.953 | 1.06 | 0.739 | 0.774 | 0.862 | 0.57 |
| A-427 | 1.05 | 0.996 | 1.07 | 0.982 | 0.296 | 0.34 | 0.289 | 0.25 | 0.574 | 0.6 | 0.529 | 0.547 | 1.18 | 0.944 | 0.852 | 0.907 | 1.15 | 0.959 | 1.01 | 0.908 |
| ABC-1 | 1.05 | 0.879 | 0.816 | 0.897 | 0.23 | 0.242 | 0.233 | 0.228 | 1.02 | 1.14 | 0.942 | 1.26 | 1.26 | 1.17 | 1.04 | 0.891 | 0.972 | 1.08 | 0.78 | 1 |
| BEN | 1.03 | 1.02 | 0.968 | 1.06 | 0.298 | 0.235 | 0.245 | 0.243 | 0.732 | 0.712 | 0.685 | 0.806 | 0.588 | 0.646 | 0.878 | 0.401 | 0.972 | 1.15 | 0.865 | 0.642 |
| CAL-12T | 1.28 | 0.765 | 0.816 | 1.09 | 0.666 | 0.527 | 0.438 | 0.275 |  |  |  |  | 0.615 | 0.686 | 0.659 | 0.384 | 1.32 | 1.25 | 1.34 | 0.998 |
| COR-L23 | 0.737 | 0.659 | 0.818 | 0.497 | 0.446 | 0.411 | 0.418 | 0.388 | 0.381 | 0.441 | 0.448 | 0.434 | 0.933 | 1.2 | 0.789 | 0.992 | 0.749 | 0.97 | 0.682 | 0.682 |
| COR-L 105 | 1.08 | 0.823 | 0.778 | 1.05 | 0.535 | 0.44 | 0.473 | 0.389 | 0.673 | 0.633 | 0.622 | 0.605 | 0.3 | 0.327 | 0.352 | 0.31 | 1.13 | 1.09 | 1.08 | 0.531 |
| Calu-6 | 0.944 | 0.913 | 0.914 | 0.766 |  |  |  |  |  |  |  |  | 1.08 | 1.01 | 0.91 | 0.875 | 0.927 | 0.936 | 0.943 | 0.829 |
| ChaGo-K-1 |  |  |  |  | 0.439 | 0.533 | 0.522 | 0.529 | 0.488 | 0.55 | 0.533 | 0.54 |  |  |  |  |  |  |  |  |
| EBC-1 | 0.871 | 0.735 | 0.746 | 0.605 |  |  |  |  |  |  |  |  | 0.203 | 0.23 | 0.205 | 0.19 | 0.823 | 0.785 | 0.723 | 0.732 |
| EKVX | 0.968 | 0.813 | 0.814 | 0.824 | 0.232 | 0.239 | 0.223 | 0.25 | 0.312 | 0.312 | 0.353 | 0.349 | 0.217 | 0.203 | 0.189 | 0.154 | 0.827 | 1.09 | 0.75 | 0.509 |
| EMC-BAC-2 | 0.765 | 0.717 | 0.586 | 0.61 | 0.508 | 0.508 | 0.458 | 0.283 | 0.922 | 0.933 | 0.897 | 0.818 | 0.909 | 0.935 | 0.842 | 0.801 | 0.749 | 0.743 | 0.696 | 0.514 |
| EPLC-272H | 0.74 | 0.909 | 1.05 | 1.05 | 0.31 |  | 0.282 | 0.303 | 0.35 | 0.332 | 0.356 | 0.345 | 0.815 | 0.891 | 0.997 | 0.86 | 0.976 | 1.09 | 0.923 | 0.765 |
| H3255 | 0.724 | 0.7 | 0.698 | 0.7 | 0.376 | 0.34 | 0.311 | 0.34 | 0.6 | 0.557 | 0.615 | 0.524 | 0.294 | 0.27 | 0.238 | 0.176 | 0.886 | 0.615 | 0.607 | 0.433 |
| HARA | 0.794 | 0.795 | 0.724 | 0.864 | 0.516 | 0.466 | 0.467 | 0.44 | 0.584 | 0.528 | 0.539 | 0.591 | 0.888 | 0.858 | 0.563 | 0.813 | 0.855 | 0.886 | 0.735 | 0.447 |
| HCC-15 | 0.944 | 0.838 | 0.954 | 0.925 | 0.47 | 0.459 | 0.472 | 0.44 | 0.657 | 0.669 | 0.614 | 0.585 | 1.08 | 0.726 | 0.87 | 0.896 | 0.963 | 0.886 | 0.864 | 0.662 |
